# Experimental data taken from patent US9924715B2, “Zinc or copper (II) salt and use thereof as a biocide” (LABORATORIYA BIO ZET, LLC, priority 2014, dated 2018).
# Where “and” joins values, the source holds several entries; their conditions need not be identical. Identical values can stand only once.
# Tests used:
# Assay type in all cases: cell-based
# fungal spores = test: Fungicidal activity, GOST 30028.4-2006, resistance of treated materials
# Method: The fungicidal activity of the proposed salts is determined according to GOST 30028.4-2006 by testing samples of various materials treated with these salts for resistance to fungal spores. Test results in terms of tolerance time (in days) are given in Table 4 wherein tolerance time for untreated materials are given for comparison.
# [1] = test system: clinical strain P. aeruginosa; test: Bactericidal activity: exposure in solution, neutralization, inoculation on solid medium; parameters: key to Bacterial growth after exposure (colony-forming units in 1 ml): NG—no growth; CG—confluent growth; details: for Bactericidal effect: 4.0%
# E. coli No. 906 = test: as above; parameters: key to Bacterial growth after exposure (colony-forming units in 1 ml): NG—no growth; CG—confluent growth; details: for Bacterial growth after exposure (colony-forming units in 1 ml): E. coli 906; for Bactericidal effect: E. coli No. 906
# S. aureus No. 1257 = test: as above; parameters: key to Bacterial growth after exposure (colony-forming units in 1 ml): NG—no growth; CG—confluent growth; details: for Bacterial growth after exposure (colony-forming units in 1 ml): S. aureus 1257; for Bactericidal effect: S. aureus No. 1257
# [2] = Emulsion polyvinyl chloride, additive content 5 wt %, untreated control 6 days
# [3] = Paper impregnated with latex SKS 65 GP, additive content 5 wt %, untreated control 4 days
Compound,Tolerance time (fungal spores; [2]),Tolerance time (fungal spores; [3]),"Bacterial growth after exposure (colony-forming units in 1 ml) (E. coli No. 906; 2.0 wt %, exposure 5 min)","Bacterial growth after exposure (colony-forming units in 1 ml) (E. coli No. 906; 2.0 wt %, exposure 15 min)","Bacterial growth after exposure (colony-forming units in 1 ml) (E. coli No. 906; 2.0 wt %, exposure 30 min)","Bacterial growth after exposure (colony-forming units in 1 ml) (E. coli No. 906; 4.0 wt %, exposure 5 min)","Bacterial growth after exposure (colony-forming units in 1 ml) (E. coli No. 906; 4.0 wt %, exposure 15 min)","Bacterial growth after exposure (colony-forming units in 1 ml) (E. coli No. 906; 4.0 wt %, exposure 30 min)","Bacterial growth after exposure (colony-forming units in 1 ml) (E. coli No. 906; 4.0 wt %, exposure 60 min)","Bacterial growth after exposure (colony-forming units in 1 ml) (S. aureus No. 1257; 2.0 wt %, exposure 5 min)","Bacterial growth after exposure (colony-forming units in 1 ml) (S. aureus No. 1257; 2.0 wt %, exposure 15 min)","Bacterial growth after exposure (colony-forming units in 1 ml) (S. aureus No. 1257; 2.0 wt %, exposure 30 min)","Bacterial growth after exposure (colony-forming units in 1 ml) (S. aureus No. 1257; 4.0 wt %, exposure 5 min)","Bacterial growth after exposure (colony-forming units in 1 ml) (S. aureus No. 1257; 4.0 wt %, exposure 15 min)","Bacterial growth after exposure (colony-forming units in 1 ml) (S. aureus No. 1257; 4.0 wt %, exposure 30 min)","Bacterial growth after exposure (colony-forming units in 1 ml) (S. aureus No. 1257; 4.0 wt %, exposure 60 min)",further results
Zinc methacrylate-myristate,12 days,,,,,,,,,,,,,,,,
C=CC(=O)[O-].CCCCCCCCCCCCCCCCCC(=O)[O-].[Cu+2] [Copper acrylate-stearate],12 days,16 days,CG,100 CFU,10 CFU,NG,NG,NG,NG,CG,>300 CFU,25 CFU,NG,NG,NG,NG,"Bacterial growth after exposure (colony-forming units in 1 ml) ([1]; 2.0 wt %, exposure 5 min): CG; Bacterial growth after exposure (colony-forming units in 1 ml) ([1]; 2.0 wt %, exposure 15 min): CG; Bacterial growth after exposure (colony-forming units in 1 ml) ([1]; 2.0 wt %, exposure 30 min): CG; Bacterial growth after exposure (colony-forming units in 1 ml) ([1]; 2.0 wt %, exposure 60 min): CG; Bactericidal effect ([1]; exposure of more than 30 min): bactericidal effect; Bacterial growth after exposure (colony-forming units in 1 ml) ([1]; 4.0 wt %, exposure 5 min): CG; Bacterial growth after exposure (colony-forming units in 1 ml) ([1]; 4.0 wt %, exposure 15 min): >300 CFU; Bacterial growth after exposure (colony-forming units in 1 ml) ([1]; 4.0 wt %, exposure 60 min): NG; Bacterial growth after exposure (colony-forming units in 1 ml) (E. coli No. 906; 2.0 wt %, exposure 60 min): NG; Bactericidal effect (E. coli No. 906; 2.0%, exposure 60 min): sustained bactericidal effect; Bactericidal effect (E. coli No. 906; 4.0%, exposure from 5 min): sustained bactericidal effect; Bacterial growth after exposure (colony-forming units in 1 ml) (S. aureus No. 1257; 2.0 wt %, exposure 60 min): NG; Bactericidal effect (S. aureus No. 1257; 2.0%, exposure 60 min): sustained bactericidal effect; Bactericidal effect (S. aureus No. 1257; 4.0%, exposure from 5 min): sustained bactericidal effect"
"C/C=C/C(=O)[O-].C=CC(=O)[O-].[Zn+2] [Zinc acrylate-crotonate, zinc acrylate-crotonate]",,,75 CFU,42 CFU,>300 CFU,NG,NG,NG,NG,CG,CG,CG,7 CFU,NG,NG,NG,"Bacterial growth after exposure (colony-forming units in 1 ml) ([1]; 2.0 wt %, exposure 5 min): >300 CFU; Bacterial growth after exposure (colony-forming units in 1 ml) ([1]; 2.0 wt %, exposure 15 min): 10 CFU; Bacterial growth after exposure (colony-forming units in 1 ml) ([1]; 2.0 wt %, exposure 30 min): 4 CFU; Bactericidal effect ([1]; exposure from 15 min): sustained bactericidal effect; Bacterial growth after exposure (colony-forming units in 1 ml) ([1]; 4.0 wt %, exposure 5 min): 1 CFU; Bacterial growth after exposure (colony-forming units in 1 ml) ([1]; 4.0 wt %, exposure 15 min): NG; Bacterial growth after exposure (colony-forming units in 1 ml) ([1]; 4.0 wt %, exposure 30 min): NG; Bacterial growth after exposure (colony-forming units in 1 ml) ([1]; 4.0 wt %, exposure 60 min): NG; Bactericidal effect (E. coli No. 906; 4.0%, exposure from 15 min): sustained bactericidal effect; Bacterial growth after exposure (colony-forming units in 1 ml) (S. aureus No. 1257; 2.0 wt %, exposure 60 min): >300 CFU; Bactericidal effect (S. aureus No. 1257; 4.0%, exposure from 15 min): sustained bactericidal effect"
Copper methacrylate-sorbate,,,>300 CFU,78 CFU,45 CFU and 53 CFU,1 CFU,NG,NG,NG,>300 CFU,85 CFU,35 CFU and 43 CFU,NG,NG,NG,NG,"Bactericidal effect ([1]; exposure from 15 min): sustained bactericidal effect; Bacterial growth after exposure (colony-forming units in 1 ml) (E. coli No. 906; 2.0 wt %, exposure 60 min): 5 CFU and 4 CFU; Bactericidal effect (E. coli No. 906; 4.0%, exposure from 15 min): sustained bactericidal effect; Bactericidal effect (S. aureus No. 1257; 4.0%, exposure from 15 min): sustained bactericidal effect"
C=CC(=O)[O-].CCCCCCCCCCC(=O)[O-].[Zn+2] [Zinc acrylate-undecylate],10 days,12 days,,,,,,,,,,,,,,,"Tolerance time (fungal spores; Paper impregnated with petrolatum base, additive content 4.7 wt %, untreated control 15 days): 20 days"
C=CC(=O)[O-].CCCCCCCCCC(=O)[O-].[Cu+2] [Copper acrylate-caprinate],20 days,19 days,,,,,,,,,,,,,,,"Tolerance time (fungal spores; Paper impregnated with petrolatum base, additive content 5 wt %, untreated control 15 days): 21 days"
Copper methacrylate-valerate,16 days,,,,,,,,,,,,,,,,
Zinc methacrylate-butyrate,11 days,10 days,,,,,,,,,,,,,,,
